One data set in a line: Self-assembly in water. Format: physicochemical. The following applies: for diameter (width) of self-assembled nanofibers: TEM, pH 7.0, 2.0 wt %, direct self-assembly without enzyme; for appearance / state in water: pH 7.0, 2.0 wt % concentration, optical image, for 2 via pH adjustment.
Another data set concerns the target T1, CD73 (Homo sapiens, UniProt P21589).
T1 sequence (P21589 27-574): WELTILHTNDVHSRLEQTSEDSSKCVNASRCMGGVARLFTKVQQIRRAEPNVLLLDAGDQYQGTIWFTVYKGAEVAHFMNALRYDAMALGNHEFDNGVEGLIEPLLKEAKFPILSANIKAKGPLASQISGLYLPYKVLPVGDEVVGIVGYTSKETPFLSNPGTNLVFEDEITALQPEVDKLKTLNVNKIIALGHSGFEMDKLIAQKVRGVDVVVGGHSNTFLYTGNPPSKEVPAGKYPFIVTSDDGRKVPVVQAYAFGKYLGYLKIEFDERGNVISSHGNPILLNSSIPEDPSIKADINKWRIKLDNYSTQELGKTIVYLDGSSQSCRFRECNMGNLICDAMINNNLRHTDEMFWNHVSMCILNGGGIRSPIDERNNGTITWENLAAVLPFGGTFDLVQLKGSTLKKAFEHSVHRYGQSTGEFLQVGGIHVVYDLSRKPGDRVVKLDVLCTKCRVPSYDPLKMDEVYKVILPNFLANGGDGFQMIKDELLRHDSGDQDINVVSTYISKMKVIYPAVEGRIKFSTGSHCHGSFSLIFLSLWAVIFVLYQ

Regarding `O=C(Cc1ccc2ccccc2c1)N[C@H](Cc1ccccc1)C(=O)N[C@H](Cc1ccccc1)C(=O)N[C@H](CCCCNc1ncnc2c1ncn2[C@@H]1O[C@H](CO)[C@@H](O)[C@H]1O)C(=O)O` [compound 2, naphthalene-D-Phe-D-Phe-D-Lys(adenosine)], in the data set “Self-assembly in water”, the “diameter (width) of self-assembled nanofibers” value came out at 5 ± 1 nm and the “appearance / state in water” value was “transparent hydrogel”.
Consider `O=C(Cc1ccc2ccccc2c1)N[C@H](Cc1ccccc1)C(=O)N[C@H](Cc1ccccc1)C(=O)N[C@H](CCCCNc1ncnc2c1ncn2[C@@H]1O[C@H](COP(=O)(O)O)[C@@H](O)[C@H]1O)C(=O)O` [compound 1, naphthalene-D-Phe-D-Phe-D-Lys(AMP)], for which the “hydrogel formation on adding CD73” value on CD73 (1 μg of CD73 added to 0.5 mL of 2 wt % solution, 37 °C, pH 7.0) is reported as “hydrogel formation after three days”. Further, the “diameter of nanofibers of the CD73-formed hydrogel” value on CD73 (TEM, after CD73 treatment, pH 7.0, 2.0 wt %) is given as 8 ± 1 nm. In addition, in the data set “Self-assembly in water”, the “diameter (width) of self-assembled nanofibers” value is 8 ± 1 nm and the “appearance / state in water” value was “transparent solution”.

The values above are taken from publication PMC4369398 (Journal of colloid and interface science, 2014).
